Holding throughout (assay type): biochemical
Assay [1] concerns the target Pim-1 (Homo sapiens (Human), UniProt P11309). Nature of the assay: Pim-1 kinase assay. As to conditions: 1 mM ATP; read-out: Pim1 IC50. The procedure: Supplementation of the STOP buffer with beads and stopping the reactions were done under reduced light. Prior to the stopping reactions STOP buffer with beads was pre-incubated for 1 h in the dark at room temperature. After stopping the reactions, plates were incubated for 1 h in the dark at room temperature before reading on a PHERAstar FS plate reader (BMG Labtech) under reduced light.

Assay [2] addresses Pim-2 (Homo sapiens (Human), UniProt Q9P1W9). Description: Pim-2 kinase assay. Conditions: 1 mM ATP; read-out: Pim2 IC50.
Assay [3] addresses Pim-3 (Homo sapiens (Human), UniProt Q86V86). Nature of the assay: Pim-3 kinase assay. As to conditions: 1 mM ATP; read-out: Pim3 IC50. Summed up: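 AlphaScreen-type assay: […] Pim-3 phosphorylates 0.05 μM biotin-BAD peptide with 1 mM ATP, 1 h at 25 °C, pH 7.5 Tris buffer with MgCl2 and DTT. EDTA stop with phospho-BAD (Ser112) antibody and donor/acceptor beads, 1 h dark incubation before reading.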

Chain of Pim-1 (P11309 whole entry): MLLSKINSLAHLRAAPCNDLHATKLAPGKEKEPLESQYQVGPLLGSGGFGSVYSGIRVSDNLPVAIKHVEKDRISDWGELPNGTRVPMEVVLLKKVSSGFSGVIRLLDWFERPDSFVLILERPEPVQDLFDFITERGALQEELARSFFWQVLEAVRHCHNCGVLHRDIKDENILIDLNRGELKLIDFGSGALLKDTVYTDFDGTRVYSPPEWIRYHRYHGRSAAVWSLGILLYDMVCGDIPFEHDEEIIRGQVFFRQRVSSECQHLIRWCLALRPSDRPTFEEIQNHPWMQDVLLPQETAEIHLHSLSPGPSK
Chain of Pim-2 (Q9P1W9 whole entry): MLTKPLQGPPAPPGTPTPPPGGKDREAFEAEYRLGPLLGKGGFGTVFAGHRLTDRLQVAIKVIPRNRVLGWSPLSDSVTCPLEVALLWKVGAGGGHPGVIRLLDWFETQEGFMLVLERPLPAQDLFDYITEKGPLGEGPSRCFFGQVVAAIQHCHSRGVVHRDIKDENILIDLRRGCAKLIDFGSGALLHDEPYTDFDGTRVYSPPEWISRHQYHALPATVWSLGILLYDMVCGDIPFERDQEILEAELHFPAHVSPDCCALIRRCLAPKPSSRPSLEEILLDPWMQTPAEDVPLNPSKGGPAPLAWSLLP

As for `N[C@H]1CCCN(c2c(NC(=O)c3ccc(F)c(-c4c(F)cccc4F)n3)cnc3c2CCC3)C1` [Example 21, N-{4-[(3S)-3-Aminopiperidin-1-yl]-6,7-dihydro-5H-cyclopenta[b]pyridin-3-yl}-6-(2,6-difluorophenyl)-5-fluoropyridine-2-carboxamide], the IC50 in assay [1], in assay [2] and in assay [3] was ≤ 100 nM in each case.

As to `C[C@H]1CN(c2c(NC(=O)c3nc(-c4c(F)cccc4F)sc3N)cnc3c2CCC3)C[C@@H](N)[C@@H]1O` [Example 28, 5-Amino-N-{4-[(3R,4R,5S)-3-amino-4-hydroxy-5-methylpiperidin-1-yl]-6,7-dihydro-5H-cyclopenta[b]pyridin-3-yl}-2-(2,6-difluorophenyl)-1,3-thiazole-4-carboxamide], the IC50 in assay [1], in assay [2] and in assay [3] was ≤ 100 nM each time.

For the compound `Nc1sc(-c2c(F)cccc2F)nc1C(=O)Nc1cnc2c(c1N1CCC[C@H](N)C1)CCCN2` [Example 31, 5-Amino-N-{4-[(3S)-3-aminopiperidin-1-yl]-5,6,7,8-tetrahydro-1,8-naphthyridin-3-yl}-2-(2,6-difluorophenyl)-1,3-thiazole-4-carboxamide], the half-inhibitory concentration (IC50) in assay [1], in assay [2] and in assay [3] was ≤ 100 nM each time.

Regarding `Nc1cc(F)c(-c2c(F)cccc2F)nc1C(=O)Nc1cnc2c(c1N1CCC[C@H](N)C1)CCCN2` [Example 32, 3-Amino-N-{4-[(3S)-3-aminopiperidin-1-yl]-5,6,7,8-tetrahydro-1,8-naphthyridin-3-yl}-6-(2,6-difluorophenyl)-5-fluoropyridine-2-carboxamide], the 50% inhibitory concentration (IC50) in assay [1], in assay [2] and in assay [3] was ≤ 100 nM in each case.

Turning to `N[C@H]1CCCN(c2c(NC(=O)c3ccc(F)c(-c4c(F)cccc4F)n3)cnc3c2CCCN3)C1` [Example 33, N-{4-[(3S)-3-Aminopiperidin-1-yl]-5,6,7,8-tetrahydro-1,8-naphthyridin-3-yl}-6-(2,6-difluorophenyl)-5-fluoropyridine-2-carboxamide], the figures for the half-inhibitory concentration (IC50) in assay [1], in assay [2] and in assay [3] were ≤ 100 nM, 100 to 1000 nM and ≤ 100 nM, respectively.

Consider `Nc1sc(-c2c(F)cccc2F)nc1C(=O)Nc1cnc2[nH]ncc2c1N1CCC[C@H](N)C1` [Example 34, 5-Amino-N-{4-[(3S)-3-aminopiperidin-1-yl]-1H-pyrazolo[3,4-b]pyridin-5-yl}-2-(2,6-difluorophenyl)-1,3-thiazole-4-carboxamide], for which the values for the IC50 in assay [1], in assay [2] and in assay [3] were ≤ 100 nM, > 2000 nM and ≤ 100 nM, respectively.

Consider `N[C@H]1CCCN(c2c(NC(=O)c3csc(-c4c(F)cccc4F)n3)cnc3[nH]ncc23)C1` [Example 35, N-{4-[(3S)-3-aminopiperidin-1-yl]-1H-pyrazolo[3,4-b]pyridin-5-yl}-2-(2,6-difluorophenyl)-1,3-thiazole-4-carboxamide], for which the IC50 (usually the midpoint of a concentration-inhibition curve) in assay [1] is > 40 nM; in assay [2], > 2000 nM; in assay [3], > 40 nM.

Take `C[C@@H]1C[C@H](N)CN(c2c(NC(=O)c3nc(-c4c(F)cccc4F)sc3N)cnc3c2CCO3)C1` [Example 36, 5-Amino-N-{4-[(3S,5R)-3-amino-5-methylpiperidin-1-yl]-2,3-dihydrofuro[2,3-b]pyridin-5-yl}-2-(2,6-difluorophenyl)-1,3-thiazole-4-carboxamide]: the IC50 in assay [1], in assay [2] and in assay [3] was ≤ 100 nM each time.

On to `C[C@@H]1C[C@H](N)CN(c2c(NC(=O)c3nc(-c4c(F)cccc4F)c(F)cc3N)cnc3c2CCO3)C1` [Example 38, 3-Amino-N-{4-[(3S,5R)-3-amino-5-methylpiperidin-1-yl]-2,3-dihydrofuro[2,3-b]pyridin-5-yl}-6-(2,6-difluorophenyl)-5-fluoropyridine-2-carboxamide], for which the IC50 in assay [1], in assay [2] and in assay [3] was ≤ 100 nM throughout.

Regarding `C[C@@H]1C[C@H](N)CN(c2c(NC(=O)c3ccc(F)c(-c4c(F)cccc4F)n3)cnc3c2CCO3)C1` [Example 39, N-{4-[(3S,5R)-3-Amino-5-methylpiperidin-1-yl]-2,3-dihydrofuro[2,3-b]pyridin-5-yl}-6-(2,6-difluorophenyl)-5-fluoropyridine-2-carboxamide], the half-inhibitory concentration (IC50) in assay [1], in assay [2] and in assay [3] was ≤ 100 nM each time.

Consider `C[C@H]1CN(c2c(NC(=O)c3nc(-c4c(F)cccc4F)sc3N)cnc3c2CCO3)C[C@@H](N)[C@@H]1O` [Example 40, 5-Amino-N-{4-[(3R,4R,5S)-3-amino-4-hydroxy-5-methylpiperidin-1-yl]-2,3-dihydrofuro[2,3-b]pyridin-5-yl}-2-(2,6-difluorophenyl)-1,3-thiazole-4-carboxamide], for which the IC50 in assay [1], in assay [2] and in assay [3] was ≤ 100 nM throughout.

For the compound `C[C@H]1CN(c2c(NC(=O)c3ccc(F)c(-c4c(F)cccc4F)n3)cnc3c2CCO3)C[C@@H](N)[C@@H]1O` [Example 41, N-{4-[(3R,4R,5S)-3-Amino-4-hydroxy-5-methylpiperidin-1-yl]-2,3-dihydrofuro[2,3-b]pyridin-5-yl}-6-(2,6-difluorophenyl)-5-fluoropyridine-2-carboxamide], the IC50 in assay [1], in assay [2] and in assay [3] was ≤ 100 nM each time.

On to `Nc1sc(-c2c(F)cccc2F)nc1C(=O)Nc1cnc2c(c1N1C[C@@H](N)C[C@@H](C(F)(F)F)C1)CCO2` [Example 42, 5-Amino-N-{4-[(3S,5R)-3-amino-5-(trifluoromethyl)piperidin-1-yl]-2,3-dihydrofuro[2,3-b]pyridin-5-yl}-2-(2,6-difluorophenyl)-1,3-thiazole-4-carboxamide], for which the half-inhibitory concentration (IC50) in assay [1], in assay [2] and in assay [3] was ≤ 100 nM in each case.

Turning to `N[C@H]1C[C@@H](C(F)(F)F)CN(c2c(NC(=O)c3ccc(F)c(-c4c(F)cccc4F)n3)cnc3c2CCO3)C1` [Example 43, N-{4-[(3S,5R)-3-amino-5-(trifluoromethyl)piperidin-1-yl]-2,3-dihydrofuro[2,3-b]pyridin-5-yl}-6-(2,6-difluorophenyl)-5-fluoropyridine-2-carboxamide], the IC50 in assay [1], in assay [2] and in assay [3] was ≤ 100 nM each time.

With `N[C@H]1CCCN(c2c(NC(=O)c3ccc(F)c(-c4c(F)cccc4F)n3)cnc3c2CCC3=O)C1` [Example 50, N-{4-[(3S)-3-Aminopiperidin-1-yl]-7-oxo-6,7-dihydro-5H-cyclopenta[b]pyridin-3-yl}-6-(2,6-difluorophenyl)-5-fluoropyridine-2-carboxamide], the concentration for half-maximal inhibition (IC50) in assay [1] is ≤ 100 nM; in assay [2], 100 to 1000 nM; in assay [3], ≤ 100 nM.

With `C[C@H]1CN(c2c(NC(=O)c3ccc(F)c(-c4c(F)cccc4F)n3)cnc3c2CCC3)C[C@@H](N)[C@@H]1O` [Example 52, N-{4-[(3R,4R,5S)-3-Amino-4-hydroxy-5-methylpiperidin-1-yl]-6,7-dihydro-5H-cyclopenta[b]pyridin-3-yl}-6-(2,6-difluorophenyl)-5-fluoropyridine-2-carboxamide], the IC50 in assay [1], in assay [2] and in assay [3] was ≤ 100 nM in each case.

Turning to `CC1(N)CCCN(c2c(NC(=O)c3nc(-c4c(F)cccc4F)sc3N)cnc3c2CCC3)C1` (stereo not drawn) [Example 57, 5-Amino-N-[4-(3-amino-3-methylpiperidin-1-yl)-6,7-dihydro-5H-cyclopenta[b]pyridin-3-yl]-2-(2,6-difluorophenyl)-1,3-thiazole-4-carboxamide], the values for the IC50 in assay [1], in assay [2] and in assay [3] were ≤ 100 nM, 100 to 1000 nM and ≤ 100 nM, respectively.

Turning to `C[C@H]1CN(c2c(NC(=O)c3ccc(F)c(-c4c(F)cc(C(C)(C)O)cc4F)n3)cnc3c2CCO3)C[C@@H](N)[C@@H]1O` [Example 65, N-{4-[(3R,4R,5S)-3-Amino-4-hydroxy-5-methylpiperidin-1-yl]-2,3-dihydrofuro[2,3-b]pyridin-5-yl}-6-[2,6-difluoro-4-(1-hydroxy-1-methylethyl)phenyl]-5-fluoropyridine-2-carboxamide], the IC50 in assay [1], in assay [2] and in assay [3] was ≤ 100 nM each time.

In the case of `C[C@H]1CN(c2c(NC(=O)c3ccc(F)c(-c4c(F)cc(OC5CCCOC5)cc4F)n3)cnc3c2CCO3)C[C@@H](N)[C@@H]1O` (stereo partly drawn) [Example 69, N-{4-[(3R,4R,5S)-3-amino-4-hydroxy-5-methylpiperidin-1-yl]-2,3-dihydrofuro[2,3-b]pyridin-5-yl}-6-[2,6-difluoro-4-(tetrahydro-2H-pyran-3-yloxy)phenyl]-5-fluoropyridine-2-carboxamide], the IC50 in assay [1], in assay [2] and in assay [3] was ≤ 100 nM each time.

Turning to `C[C@H]1CN(c2c(NC(=O)c3nc(-c4c(F)cccc4F)c(F)cc3N)cnc3c2CCO3)C[C@@H](N)[C@@H]1O` [Example 71, 3-Amino-N-{4-[(3R,4R,5S)-3-amino-4-hydroxy-5-methylpiperidin-1-yl]-2,3-dihydrofuro[2,3-b]pyridin-5-yl}-6-(2,6-difluorophenyl)-5-fluoropyridine-2-carboxamide], the IC50 in assay [1], in assay [2] and in assay [3] was ≤ 100 nM each time.

The record behind these values is patent US10265307B2, “Thiazolecarboxamides and pyridinecarboxamide compounds useful as Pim kinase inhibitors” (Incyte Corporation, priority 2013, dated 2019).
